Reference: ChEMBL document CHEMBL1140535, “Synthesis and evaluation of substituted benzoisoquinolinones as potent inhibitors of Chk1 kinase” (Bioorg Med Chem Lett, 2007)
Activity calls are given as the source filed them. The rule behind the calls is not given here.

How the values were obtained:
[1] = target: T1, Serine/threonine-protein kinase Chk1 (Homo sapiens, UniProt O14757); experiment: Inhibition of human Chk1 expressed in baculovirus by time-resolved fluorescence assay
T1 sequence (O14757 whole entry): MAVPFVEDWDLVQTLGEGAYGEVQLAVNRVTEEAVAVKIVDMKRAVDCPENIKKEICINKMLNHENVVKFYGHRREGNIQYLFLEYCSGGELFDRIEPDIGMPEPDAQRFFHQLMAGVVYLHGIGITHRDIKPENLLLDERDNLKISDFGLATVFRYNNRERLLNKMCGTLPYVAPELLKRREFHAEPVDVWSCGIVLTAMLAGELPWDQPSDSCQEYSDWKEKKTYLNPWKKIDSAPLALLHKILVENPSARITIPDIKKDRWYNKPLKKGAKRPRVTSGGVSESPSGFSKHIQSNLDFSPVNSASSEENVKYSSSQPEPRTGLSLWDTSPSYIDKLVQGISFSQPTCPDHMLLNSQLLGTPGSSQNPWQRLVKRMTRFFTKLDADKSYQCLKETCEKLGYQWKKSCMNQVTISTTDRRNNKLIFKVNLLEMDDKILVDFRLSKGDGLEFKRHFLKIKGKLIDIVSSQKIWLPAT

NCI-H1299 = experiment: Inhibition of camptothecin induced mitotic arrest in human NCI-H1299 cells after 18 hrs; assay type: functional, cell-based; settings: NCI-H1299, 18 h
HT-29 [2] = experiment: Effect on apoptosis in HT29 cells assessed as increase in camptothecin induced caspase 3 activation after 24 hrs; assay type: functional, cell-based; settings: Homo sapiens
HT-29 [3] = experiment: Effect on apoptosis in HT29 cells assessed as increase in caspase 3 activation after 24 hrs; assay type: functional, cell-based; settings: Homo sapiens

Row | SMILES | IC50 [1] [nM] | EC50 (NCI-H1299) [nM] | Activity (HT-29 [2]) | Activity (HT-29 [3])
1 | NCCCc1cc2cc[nH]c(=O)c2c2cc(-c3ccn[nH]3)ccc12 | 4.3 | 150 |  | 
2 | NCCCc1cc2cc[nH]c(=O)c2c2cc(Cl)ccc12 | 12 | 230 |  | 
3 | NCCCc1cc2c(-c3ccccc3Cl)c[nH]c(=O)c2c2cc(-c3cn[nH]c3)ccc12 | 0.8 | 130 |  | 
4 | NCCCc1cc2c(-c3ccccc3O)c[nH]c(=O)c2c2cc(-c3cn[nH]c3)ccc12 | 2 | 230 |  | 
5 | NCCCc1cc2c(-c3ccccc3F)c[nH]c(=O)c2c2cc(-c3cn[nH]c3)ccc12 | 2.6 | 370 |  | 
6 | NCCCc1cc2c(-c3cccc(Cl)c3)c[nH]c(=O)c2c2cc(-c3cn[nH]c3)ccc12 | 11.5 | 1050 |  | 
7 | NCCCc1cc2cc[nH]c(=O)c2c2cc(-c3cn[nH]c3)ccc12 | 3.5 | 64 |  | 
8 | N#CCCc1cc2cc[nH]c(=O)c2c2cc(Cl)ccc12 | 510 |  |  | 
9 | CN(C)CCc1cc2cc[nH]c(=O)c2c2cc(Br)ccc12 | 130 |  |  | 
10 | N#Cc1cc2cc[nH]c(=O)c2c2cc(Br)ccc12 | 400 |  |  | 
11 | COC(=O)c1cc2cc[nH]c(=O)c2c2cc(Br)ccc12 | 300 |  |  | 
12 | NCCc1cc2cc[nH]c(=O)c2c2cc(Br)ccc12 | 3 |  |  | 
13 | N#CCCc1cc2cc[nH]c(=O)c2c2cc(Br)ccc12 | 420 |  |  | 
14 | NCCCc1cc2c(-c3ccc(Cl)cc3Cl)c[nH]c(=O)c2c2cc(-c3cn[nH]c3)ccc12 | 1.2 | 270 |  | 
15 | COC(=O)c1cc2cc[nH]c(=O)c2c2cc(Cl)ccc12 | 360 |  |  | 
16 | NCCc1cc2cc[nH]c(=O)c2c2cc(-c3cn[nH]c3)ccc12 | 3 | 79 | Active | inactive
17 | NCCCc1cc2cc[nH]c(=O)c2c2cc(-c3ccc(CN)cc3)ccc12 | 6.5 | 1080 |  | 
18 | NCCCc1cc2c(Br)c[nH]c(=O)c2c2cc(-c3cn[nH]c3)ccc12 | 2.3 | 140 |  | 
19 | NCCCc1cc2cc[nH]c(=O)c2c2cc(-c3ccc[nH]3)ccc12 | 2.4 | 44 |  | 
20 | Cn1cc(-c2ccc3c(CCCN)cc4cc[nH]c(=O)c4c3c2)cn1 | 9.2 | 957 |  | 
21 | NCCCc1cc2cc[nH]c(=O)c2c2cc(C(N)=O)ccc12 | 11 | > 10000 |  | 
22 | O=c1[nH]ccc2c3[nH]cnc3c3ccc(F)cc3c12 | 610 |  |  | 

Row | SMILES | IC50 [1] [nM] | EC50 (NCI-H1299) [nM] | Activity (HT-29 [2]) | Activity (HT-29 [3])
23 | NCCCc1cc2c(-c3ccc(F)cc3)c[nH]c(=O)c2c2cc(-c3cn[nH]c3)ccc12 | 3.5 | 370 |  | 
24 | NCCc1cc2cc[nH]c(=O)c2c2cc(Cl)ccc12 | 11 |  |  | 
25 | C=Cc1c[nH]c(=O)c2c1cc(CCCN)c1ccc(-c3cn[nH]c3)cc12 | 3.6 | 210 |  | 
26 | O=c1[nH]ccc2c3[nH]c(-c4cccnc4)nc3c3ccc(F)cc3c12 | 110 |  |  | 
27 | N#Cc1cc2cc[nH]c(=O)c2c2cc(Cl)ccc12 | 1060 |  |  | 
28 | O=c1[nH]ccc2cc(CO)c3ccc(Br)cc3c12 | 440 |  |  | 
29 | CN(C)CCNC(=O)c1ccc2c(CCCN)cc3cc[nH]c(=O)c3c2c1 | 2 | > 10000 |  | 
30 | NCCCc1cc2c(-c3ccc(Cl)cc3)c[nH]c(=O)c2c2cc(-c3cn[nH]c3)ccc12 | 1.2 | 320 |  | 
31 | NCCCc1cc2cc[nH]c(=O)c2c2ccccc12 | 98 |  |  | 
32 | NCCc1cc2cc[nH]c(=O)c2c2cc(-c3ccc(CN4CCOCC4)cc3)ccc12 | 0.6 | 130 |  | 
33 | NCCCc1cc2c(-c3ccc(O)cc3)c[nH]c(=O)c2c2cc(-c3cn[nH]c3)ccc12 | 0.3 | 47 |  | 
34 | NCCCc1cc2c(-c3ccccc3)c[nH]c(=O)c2c2cc(-c3cn[nH]c3)ccc12 | 2 | 140 |  | 
35 | CNCCc1cc2cc[nH]c(=O)c2c2cc(Br)ccc12 | 44 |  |  | 
36 | O=c1[nH]ccc2cc(CCO)c3ccc(Br)cc3c12 | 780 |  |  | 
37 | NCCCc1cc2cc[nH]c(=O)c2c2cc(Br)ccc12 | 17 | 310 |  | 
38 | NCCCc1cc2c(-c3cccc(O)c3)c[nH]c(=O)c2c2cc(-c3cn[nH]c3)ccc12 | 1 | 67 |  | 
39 | NCCc1cc2cc[nH]c(=O)c2c2cc(-c3ccc[nH]3)ccc12 | 0.5 | 14 |  | 
40 | O=c1[nH]ccc2ccc3ccc(Cl)cc3c12 | 580 |  |  | 
41 | O=c1[nH]ccc2c3[nH]c(-c4ccccc4)nc3c3ccc(F)cc3c12 | 1080 |  |  | 
42 | NCCCc1cc2c(-c3cccc(F)c3)c[nH]c(=O)c2c2cc(-c3cn[nH]c3)ccc12 | 3.7 | 300 |  | 
43 | NCCc1cc2cc[nH]c(=O)c2c2cc(-c3ccn[nH]3)ccc12 | 2.5 | 100 |  | 
44 | N#Cc1ccc2c(CCCN)cc3cc[nH]c(=O)c3c2c1 | 25 | 2200 |  | 
